Reference: ChEMBL document CHEMBL1142757, “Synthesis and biological evaluation of novel angularly fused polycyclic coumarins” (2005)
Active and inactive are the calls of the source. No cut-off for these calls is given here.

Legend:
Rattus norvegicus [1] = test: (§1) Antiinflammatory activity against Albino rat dosed at 100 mg/kg (3h); type: functional
Mus musculus [2] = test: Analgesic activity against Swiss albino mice dosed at 100 mg/kg and activity calculated as percentage maximum possible effect (% MPE); No activity; type: functional, organism-based; set-up: dose 100 mg/kg
Rattus norvegicus [3] = test: Antiinflammatory activity against Albino rat dosed at 400 mg/kg (3h); type: functional
Rattus norvegicus [4] = test: Antiinflammatory activity against Albino rat dosed at 200 mg/kg (3h); type: functional
Rattus norvegicus [5] = test: Antiinflammatory activity against Albino rat dosed at 300 mg/kg (3h); type: functional
Mus musculus [6] = test: Analgesic activity against Swiss albino mice dosed at 200 mg/kg and activity calculated as percentage maximum possible effect (% MPE); type: functional
Mus musculus [7] = test: Analgesic activity against Swiss albino mice dosed at 300 mg/kg and activity calculated as percentage maximum possible effect (% MPE); type: functional
Mus musculus [8] = test: Analgesic activity against Swiss albino mice dosed at 400 mg/kg and activity calculated as percentage maximum possible effect (% MPE); type: functional
Rattus norvegicus [9] = test: as §1; type: functional, organism-based; set-up: dose 100 mg/kg
Mus musculus [10] = test: Analgesic activity against Swiss albino mice dosed at and activity calculated as percentage maximum possible effect (% MPE); type: functional
Rattus norvegicus [11] = test: Antiinflammatory activity against Albino rat dosed at 300 mg/kg; type: functional
Rattus norvegicus [12] = test: Antiinflammatory activity against Albino rat dosed at 400 mg/kg; type: functional
Rattus norvegicus [13] = test: Antiinflammatory activity against Albino rat dosed at 200 mg/kg; type: functional

SMILES: O=C(O)Cc1ccccc1Nc1c(Cl)cccc1Cl [DICLOFENAC SODIUM]
- inhibition in vivo at 100 mg/kg (Rattus norvegicus [1]): 94.5%
- MPE (Mus musculus [2]): inactive

SMILES: Cc1ccc2oc(=O)c3cnc4c5ccccc5oc4c3c2c1
- inhibition in vivo at 400 mg/kg (Rattus norvegicus [3]): 67.2%
- inhibition in vivo at 200 mg/kg (Rattus norvegicus [4]): 89%
- inhibition in vivo at 300 mg/kg (Rattus norvegicus [5]): 96.3%
- MPE (Mus musculus [6]): 20.9%
- MPE (Mus musculus [7]): 32.9%
- MPE (Mus musculus [8]): 20.9%

SMILES: CC(=O)Oc1ccccc1C(=O)O [ASPIRIN]
- inhibition (Rattus norvegicus [9]): inactive
- MPE (Mus musculus [10]): 74.9%

SMILES: Cc1nc2c3ccccc3oc2c2c1c(=O)oc1cc(Cl)ccc12
- inhibition in vivo at 400 mg/kg (Rattus norvegicus [3]): 27.4%
- inhibition in vivo at 200 mg/kg (Rattus norvegicus [4]): 21.6%
- inhibition in vivo at 300 mg/kg (Rattus norvegicus [5]): 25.9%
- MPE (Mus musculus [6]): 4.7%
- MPE (Mus musculus [7]): 7.3%
- MPE (Mus musculus [8]): 9.2%

SMILES: CCc1nc2c3ccccc3oc2c2c1c(=O)oc1cc(C)ccc12
- inhibition in vivo at 400 mg/kg (Rattus norvegicus [3]): 46.5%
- inhibition in vivo at 200 mg/kg (Rattus norvegicus [4]): 35.4%
- inhibition in vivo at 300 mg/kg (Rattus norvegicus [5]): 41.7%
- MPE (Mus musculus [6]): 2.4%
- MPE (Mus musculus [7]): 4.9%
- MPE (Mus musculus [8]): 7.1%

SMILES: CCc1nc2c3ccccc3oc2c2c1c(=O)oc1cc(OC)ccc12
- inhibition in vivo at 400 mg/kg (Rattus norvegicus [3]): 67.2%
- inhibition in vivo at 200 mg/kg (Rattus norvegicus [4]): 35.7%
- inhibition in vivo at 300 mg/kg (Rattus norvegicus [5]): 78.1%
- MPE (Mus musculus [6]): 24.3%
- MPE (Mus musculus [7]): 24.4%
- MPE (Mus musculus [8]): 39.5%

SMILES: Cc1ccc2c(c1)oc(=O)c1c(C)nc3c4ccccc4oc3c12
- inhibition in vivo at 400 mg/kg (Rattus norvegicus [3]): 97%
- inhibition in vivo at 200 mg/kg (Rattus norvegicus [4]): 80.7%
- inhibition in vivo at 300 mg/kg (Rattus norvegicus [5]): 88.7%
- MPE (Mus musculus [6]): 22.9%
- MPE (Mus musculus [7]): 24.9%
- MPE (Mus musculus [8]): 18.3%

SMILES: O=c1oc2cc(Cl)ccc2c2c1cnc1c3ccccc3oc12
- inhibition in vivo at 400 mg/kg (Rattus norvegicus [3]): 29.4%
- inhibition in vivo at 200 mg/kg (Rattus norvegicus [4]): 19.2%
- inhibition in vivo at 300 mg/kg (Rattus norvegicus [5]): 26.3%
- MPE (Mus musculus [6]): 1.8%
- MPE (Mus musculus [7]): 3.4%
- MPE (Mus musculus [8]): 6.8%

SMILES: Cc1ccc2c(c1)oc(=O)c1cnc3c4ccccc4oc3c12
- inhibition in vivo at 300 mg/kg (Rattus norvegicus [11]): 31.4%
- inhibition in vivo at 400 mg/kg (Rattus norvegicus [12]): 18.3%
- MPE (Mus musculus [6]): 1.3%
- MPE (Mus musculus [7]): 22.9%
- MPE (Mus musculus [8]): 10.8%
- inhibition in vivo at 200 mg/kg (Rattus norvegicus [13]): 24.6%
